For test [1], the target named is T1, Tyrosine-protein kinase JAK2 (Homo sapiens, UniProt O60674). Also noted: species or system Sf9.
In test [2] the target is T1, Tyrosine-protein kinase JAK2. As to the kind of experiment: Binding affinity to human C-terminal His8-tagged JAK2 pseudokinase (513 to 827 residues) expressed in baculovirus infected Hi-5 cells by intrinsic tryptophan fluorescence assay.
Test [3] has the same target. Description: Binding affinity to wild type 6XHis-tagged human JAK2 JH2 domain (513 to 827 residues) expressed in baculovirus infected Sf9 cells by MANT-ATP binding assay.
The target in test [4] is Tyrosine-protein kinase JAK2 (Homo sapiens, UniProt O60674, V617F). Description: Binding affinity to 6XHis-tagged human JAK2 JH2 domain V617F mutant (513 to 827 residues) expressed in baculovirus infected Sf9 cells by MANT-ATP binding assay.

pKd: −log10 of the molar value.

T1 sequence (O60674 whole entry, the tested form may be a part): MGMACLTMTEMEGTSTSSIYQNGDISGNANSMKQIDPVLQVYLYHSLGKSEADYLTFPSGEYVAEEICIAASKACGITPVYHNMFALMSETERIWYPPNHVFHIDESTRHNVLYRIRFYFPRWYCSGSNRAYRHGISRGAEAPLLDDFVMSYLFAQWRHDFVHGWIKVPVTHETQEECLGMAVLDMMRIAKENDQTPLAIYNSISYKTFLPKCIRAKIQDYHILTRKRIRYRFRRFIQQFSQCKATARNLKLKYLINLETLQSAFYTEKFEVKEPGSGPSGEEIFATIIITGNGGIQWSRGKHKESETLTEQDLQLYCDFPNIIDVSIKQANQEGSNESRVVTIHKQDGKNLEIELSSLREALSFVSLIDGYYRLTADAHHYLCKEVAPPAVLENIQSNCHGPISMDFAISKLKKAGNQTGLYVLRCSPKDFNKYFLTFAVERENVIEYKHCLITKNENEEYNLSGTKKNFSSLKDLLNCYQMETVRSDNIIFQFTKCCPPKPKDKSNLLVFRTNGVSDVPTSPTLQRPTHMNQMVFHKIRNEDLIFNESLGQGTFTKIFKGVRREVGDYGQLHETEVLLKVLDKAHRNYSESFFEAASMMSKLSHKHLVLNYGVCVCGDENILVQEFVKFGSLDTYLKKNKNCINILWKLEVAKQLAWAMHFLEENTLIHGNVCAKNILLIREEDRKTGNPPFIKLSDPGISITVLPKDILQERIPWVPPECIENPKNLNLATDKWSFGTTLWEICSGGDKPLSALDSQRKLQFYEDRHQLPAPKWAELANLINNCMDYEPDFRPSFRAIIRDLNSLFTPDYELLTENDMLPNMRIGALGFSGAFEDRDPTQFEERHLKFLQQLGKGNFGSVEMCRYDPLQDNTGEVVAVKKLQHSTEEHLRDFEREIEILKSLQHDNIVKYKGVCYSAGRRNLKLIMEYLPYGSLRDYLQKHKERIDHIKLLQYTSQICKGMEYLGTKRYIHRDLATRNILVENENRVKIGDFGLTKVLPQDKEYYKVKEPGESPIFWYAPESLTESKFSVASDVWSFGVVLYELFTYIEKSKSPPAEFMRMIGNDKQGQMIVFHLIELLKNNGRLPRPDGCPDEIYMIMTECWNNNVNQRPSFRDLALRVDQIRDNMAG
Tyrosine-protein kinase JAK2 (Homo sapiens, UniProt O60674, V617F), sequence (O60674 whole entry V617F, the tested form may be a part): as the sequence (O60674 whole entry, the tested form may be a part) above, with V617F counted along it

In test [1], `Nc1nc(Nc2ccc(S(N)(=O)=O)cc2)nn1Cc1c(F)cccc1F` gave a pKd of 4.78.

Compound `N#Cc1ccc(Nc2nc(N)n(C(=O)Nc3cccc(OCC(=O)O)c3)n2)cc1` gave a pKd in test [1] of 5.40.

Compound `Nc1nc(Nc2ccc(S(N)(=O)=O)cc2)nn1C(=O)Nc1ccc(-c2ccc(C(=O)O)o2)cc1` showed a pKd in test [1] of 6.36.

`Nc1nc(Nc2ccc(S(N)(=O)=O)cc2)nn1C(=O)Nc1cccnc1` showed a pKd in test [1] of 4.91.

In test [1], `Nc1nc(Nc2ccc(S(N)(=O)=O)cc2)nn1C(=O)Nc1ccccn1` showed a pKd of 4.52. Compared with the last compound, the pKd is 0.39 log units lower.

With `Nc1nc(Nc2ccc(S(N)(=O)=O)cc2)nn1C(=O)Nc1ccccc1`, in test [1], the pKd was 5.33.

`COC(=O)COc1ccc(NC(=O)n2nc(Nc3ccc(S(N)(=O)=O)cc3)nc2N)cc1` showed a pKd in test [1] of 5.72.

In turn, `Nc1nc(Nc2ccc(S(N)(=O)=O)cc2)nn1C(=O)Nc1ccc(-c2nnc(C(=O)O)o2)cc1` showed a pKd in test [1] of 5.15.

In test [1], `CN(C(=O)n1nc(Nc2ccc(S(N)(=O)=O)cc2)nc1N)c1ccccc1` showed a pKd of 4.32.

Take `CC(C)CCN1c2nc(Nc3cc(F)c(O)c(F)c3)ncc2N(C)C(=O)C1C` (stereo not drawn): the pKd in test [2] is 6.21; in test [1], 5.70.

On to `Nc1ncnc2c1ncn2[C@@H]1O[C@H](COP(=O)(O)OP(=O)(O)OP(=O)(O)O)[C@@H](O)[C@H]1O` [ADENOSINE TRIPHOSPHATE], for which the pKd in test [3] and in test [4] was 5.89 in each case.

One may read the pKd as the Kd on a negative log10 scale, so that one unit is a factor of ten. A low value points to a high Kd.

The values above are taken from ChEMBL document CHEMBL4354882, “Selective Janus Kinase 2 (JAK2) Pseudokinase Ligands with a Diaminotriazole Core” (J Med Chem, 2020).
